Non-standard residues stand in square brackets, D forms with d. Residues, ends and D or L forms follow the SMILES beside them. *: point of attachment. 5FAM = O=C1OC2(c3ccc(O)cc3Oc3cc(O)ccc32)c2ccc(C(=O)*)cc21; NMeR = CN[C@@H](CCCNC(=N)N)C(=O)O
What was measured:
[1] = test system: stomach cancer cells (SCH); assay: Accumulation of FAM-labeled peptides in cells, inverted fluorescence microscope (Test Example 2); assay type: cell-based, human; settings: 2 μM, 37° C., 2 hours
Description: (§1) Tests were conducted to confirm the accumulation of each peptide in each of the cells shown below in Table 8. Further, among the peptides shown below in Table 9, the FAM-PCPP11 used in Test Example 1, the LL peptide in which the N-terminus had been FAM-labeled (FAM-LL), and the Ld peptide in which the N-terminus had been FAM-labeled (FAM-Ld) were used.
(§2) Each of FAM-PCPP11, FAM-LL and FAM-Ld was added to each of the cells shown in Table 8 in an amount sufficient to achieve a final concentration in the medium of 2 μM, and following cultivation of the cells at 37° C. for 2 hours, the sample was washed 3 times with a medium containing no peptide to remove any peptide within the medium. Subsequently, the incorporation of each of the peptides into each of the cells was evaluated visually using an inverted fluorescence microscope. Prior to the microscopic examination, the culture supernatant to which the peptide had been added was removed, and following washing three times with 1×PBS (−), a trypsin treatment was conducted to remove the adherent cells, and the resultant was immediately transferred into a new 96-well plate and once again suspended in fresh culture solution before the microscopic examination was performed. In FIG. 8A, “L” indicates the cells to which FAM-PCPP11 was added, “LL” indicates the cells to which FAM-LL was added, and “Ld” indicates the cells to which FAM-Ld was added. Further, the fluorescent images in the BxPC3 cells indicate a representative example of pancreatic cancer cells.
(§3) Furthermore, FIG. 8B is a graph quantifying the fluorescence detected in each of the above cells in FIG. 8A, with the fluorescence intensity detected in each cell shown relative to a value of 1.0 for the fluorescence detected in the H2110 cells, which is a cell line derived from an adenocarcinoma in a human non-small-cell lung cancer system, to which each of the FAM-PCPP11 and FAM-LL peptides had been added.

[2] = test system: scirrhous pancreatic cancer model mouse (BxPC3 cells; BxPC3 cells and hMSC); assay: Selective absorption of FAM-LL in tissues of scirrhous pancreatic cancer model mouse (Test Example 6); assay type: in vivo, NOD/SCID mouse; settings: 200 μg into the caudal vein, 30 minutes after administration
Description: FAM-LL was administered to a pancreatic cancer model mouse having scirrhous carcinoma, and the selective absorption of the FAM-LL in various tissues of the mouse was confirmed. A scirrhous pancreatic cancer model mouse having scirrhous carcinoma that forms abundant tumor-stroma interactions was produced in accordance with the method disclosed in Reference Document 1 (Saito K et al., “Stromal mesenchymal stem cells facilitate pancreatic cancer progression by regulating specific secretory molecules through mutual cellular interaction.”, Journal of Cancer, Vol. 9, No. 16, pp. 2916-2929, 2018.). Specifically, a 6-week old NOD/SCID mouse (CLEA Japan Inc., Japan) was raised under pathogen-free conditions. BxPC3 cells (2×10^5 cells) and a cell mixture containing BxPC3 cells (1×10^5 cells) and human mesenchymal stem cells (hMSC) (1×10^5 cells) were each injected subcutaneously into the mouse.
FAM-LL (200 μg) was injected into the caudal vein of the obtained scirrhous pancreatic cancer model mouse. Subsequently, the pharmacokinetics of the peptide 30 minutes after administration were analyzed by tissue analysis of the freshly dissected specimen of the peptide-administered mouse. FIG. 18A is a series of bright-field images (left and center) and a fluorescent image (right) of the tumors in the scirrhous pancreatic cancer model mouse. […]

[3] = test system: human pancreatic cancer growth and progression mouse model (subcutaneous and intraperitoneal human pancreatic cancer cell-transplanted); assay: Selective absorption into tissues of human pancreatic cancer growth and progression mouse model, fluorescence signal (Test Examples 3, 4, Reference Example 2); assay type: in vivo, Balb/c nu/nu mouse; settings: 200 μg intravenously, 30 minutes after injection
Description: Subsequently, 200 μg of each of the fluorescent labeled peptides prepared above in “1.” was injected intravenously into a human pancreatic cancer growth and progression mouse model (Balb/c nu/nu mouse, subcutaneous and intraperitoneal human pancreatic cancer cell-transplanted model). The pharmacokinetics of the peptide 30 minutes after the intravenous injection were then analyzed by tissue analysis of the freshly dissected specimen of the administered mouse, with the absorption quantified by detection of the fluorescence signal. […] In FIG. 9A, “sc tumor” is an abbreviation for “subcutaneous tumor”. In FIG. 9B, “abd tumor” is an abbreviation for “abdominal tumor”, indicating a tumor formed intraperitoneally. Further, “br” indicates the brain, “hr” indicates the heart, “kd” indicates the kidney, and “liv” indicates the liver. Furthermore, “liv. meta” is an abbreviation for “liver metastatic tumor”, and describes a tumor that has metastasized to the liver. Moreover, “panc” indicates the pancreas, and “sp” indicates the spleen. These same abbreviations are also used in subsequent figures. Furthermore, the term “untreated” in FIG. 9A indicates tissues resected from a mouse that was not administered with any fluorescent labeled peptide.
Specifically, first, either 27 μg or 200 μg of fluorescein was injected intravenously into a human pancreatic cancer growth and progression mouse model (Balb/c nu/nu mouse, subcutaneous and intraperitoneal human pancreatic cancer cell-transplanted model). The pharmacokinetics of the FLC 30 minutes after the intravenous injection were then analyzed by tissue analysis of the freshly dissected specimen of the administered mouse, with the absorption quantified by detection of the fluorescence signal.

[4] = test system: pancreatic cancer cells (BxPC3, PK-8, MIA-Paca2, AsPC1, PL45, Panc-1); assay: Accumulation of various peptides in pancreatic cancer cells (Test Example 5); assay type: cell-based, human; settings: 2 μM, 37° C., 2 hours
Description: Test were conducted to confirm the accumulation of various peptides in each of the cells shown below in Table 11. Further, the peptides shown below in Table 12 were used.
Each peptide was added to each of the cells shown in Table 11 in an amount sufficient to achieve a final concentration in the medium of 2 μM, and following cultivation of the cells at 37° C. for 2 hours, the sample was washed 3 times with a medium containing no peptide to remove any peptide within the medium. Subsequently, the incorporation of each of the peptides into each of the cells was evaluated visually using an inverted fluorescence microscope. Prior to the microscopic examination, the culture supernatant to which the peptide had been added was removed, and following washing three times with 1×PBS (−), a trypsin treatment was conducted to remove the adherent cells, and the resultant was immediately transferred into a new 96-well plate and once again suspended in fresh culture solution before the microscopic examination was performed. In FIG. 17, “L” indicates the cells to which FAM-PCPP11 was added, “d” indicates the cells to which FAM-d was added, “LL” indicates the cells to which FAM-LL was added, “LL2” indicates the cells to which FAM-LL2 was added, and “dd” indicates the cells to which FAM-dd was added.

[5] = test system: pancreatic cancer cells (BxPC3, PK-8, MIA-Paca2); assay: Accumulation of FAM-labeled peptides in cells, inverted fluorescence microscope (Test Example 2); assay type: cell-based, human; settings: 2 μM, 37° C., 2 hours
Description: as §1, §2, §3
Further, each of FAM-PCPP11, FAM-LL and FAM-NmLL was added to each of the cells shown in Table 8 in an amount sufficient to achieve a final concentration in the medium of 2 μM, and following cultivation of the cells at 37° C. for 2 hours, the sample was washed 3 times with a medium containing no peptide to remove any peptide within the medium. Subsequently, the incorporation of each of the peptides into each of the cells was evaluated visually using an inverted fluorescence microscope. […]

[6] = test system: scirrhous pancreatic cancer model mice (BxPC3, MIA-Paca2, AsPC1 or Capan-2 cells with hMSC); assay: Selective absorption of FAM-NmLL in tissues of scirrhous pancreatic cancer model mice (Test Example 7); assay type: in vivo, NOD/SCID, KPC and KC mouse; settings: 200 μg into the caudal vein, 30 minutes after administration; all of the mouse models
Description: FAM-NmLL was administered to pancreatic cancer model mice having scirrhous carcinoma, and the selective absorption of the FAM-NmLL in various tissues of the mouse was confirmed. A scirrhous pancreatic cancer model mouse having scirrhous carcinoma that forms abundant tumor-stroma interactions was produced in accordance with the method disclosed in the above Reference Document 1. Specifically, a 6-week old NOD/SCID mouse (CLEA Japan Inc., Japan), a Pdx1-Cre/KRAS^G12D (KC) mouse having a mutation in K-Ras, and a Pdx1-Cre/KRAS^G12D; p53^R172H (KPC) mouse having pancreatic cancer-specific mutations in K-Ras and p53 were raised under pathogen-free conditions. […]
FAM-NmLL (200 μg) was injected into the caudal vein of each of the obtained scirrhous pancreatic cancer model mice. Subsequently, the pharmacokinetics of the peptide 30 minutes after administration were analyzed by tissue analysis of the freshly dissected specimen of the peptide-administered mouse. […]

[7] = FIG. 8B, relative to H2110 cells = 1.0

Row | Structure (SMILES) | fluorescence compared with the sample containing FAM-PCPP11 [1] | increase of quantitative value for the fluorescence compared with FAM-PCPP11 [1, 7] | absorption into the cancer cell nests inside the tumor tissue [2] | absorption into the tumor tissue [2] | inhibitory performance on nonspecific absorption into untargeted normal organs [3] | nonspecific absorption compared with conventional PCPP11 ([3]; FIG. 10A to 10D) | absorption into pancreatic malignant tumors compared with the conventional PCPP11 ([3]; FIG. 11) [fold] | fluorescence compared with the other peptides [4] | fluorescence detected [4] | fluorescence compared with the sample containing FAM-PCPP11 [5] | increase of quantitative value for the fluorescence compared with FAM-PCPP11 [5, 7] | absorption into the cancer cell nests inside the tumor tissues [6] | absorption into the tumor tissues (main lesions and metastatic lesions) [6]
1 | C[C@@H](O)[C@H](NC(=O)[C@@H](NC(=O)[C@@H]1CCCN1C(=O)[C@H](CCCNC(=N)N)NC(=O)[C@H](CCCNC(=N)N)NC(=O)CNC(=O)[C@@H]1CCCN1C(=O)[C@H](CCCCN)NC(=O)[C@H](Cc1c[nH]cn1)NC(=O)[C@H](Cc1c[nH]c2ccccc12)NC(=O)[C@@H](NC(=O)[C@@H](NC(=O)[C@@H]1CCCN1C(=O)[C@H](CCCNC(=N)N)NC(=O)[C@H](CCCNC(=N)N)NC(=O)c1ccc2c(c1)C(=O)OC21c2ccc(O)cc2Oc2cc(O)ccc21)[C@@H](C)O)[C@@H](C)O)[C@@H](C)O)C(=O)N[C@@H](Cc1c[nH]c2ccccc12)C(=O)N[C@@H](Cc1c[nH]cn1)C(=O)N[C@@H](CCCCN)C(=O)N1CCC[C@H]1C(=O)O [FAM-LL] (5FAM-RRPTTWHKPGRRPTTWHKP-OH; C-terminus assumed) | stronger fluorescence | at least 2.9 fold | strong absorption | strong absorption | satisfactorily maintained | inhibited even more effectively | 3 | stronger fluorescence | particularly strong fluorescence | stronger fluorescence | at least 2.9 fold | – | –
2 | C[C@@H](O)[C@H](NC(=O)[C@@H](NC(=O)[C@@H]1CCCN1C(=O)[C@H](CCCNC(=N)N)NC(=O)[C@H](CCCNC(=N)N)NC(=O)CNC(=O)[C@@H]1CCCN1C(=O)[C@H](CCCCN)NC(=O)[C@H](Cc1c[nH]cn1)NC(=O)[C@H](Cc1c[nH]c2ccccc12)NC(=O)[C@@H](NC(=O)[C@@H](NC(=O)[C@@H]1CCCN1C(=O)[C@H](CCCNC(=N)N)N(C)C(=O)[C@H](CCCNC(=N)N)NC(=O)c1ccc2c(c1)C(=O)OC21c2ccc(O)cc2Oc2cc(O)ccc21)[C@@H](C)O)[C@@H](C)O)[C@@H](C)O)C(=O)N[C@@H](Cc1c[nH]c2ccccc12)C(=O)N[C@@H](Cc1c[nH]cn1)C(=O)N[C@@H](CCCCN)C(=O)N1CCC[C@H]1C(=O)O [FAM-NmLL] (5FAM-R[NMeR]PTTWHKPGRRPTTWHKP-OH; C-terminus assumed) | – | – | – | – | – | – | – | – | – | stronger fluorescence | – | strong absorption | strong absorption

From patent publication US11447525B2 (NIIGATA UNIVERSITY, priority 2018, dated 2022)
